Reference: patent US20250320215A1, “SALTS OF N-[4-(4-[[2-(DIMETHYLAMINO)ETHYL]AMINO]-3-METHYL-1H-PYRAZOLO[3,4-D]PYRIMIDIN-6-YL)-2-FLUOROPHENYL]-2,5-DIFLUOROBENZENESULFONAMIDE AND CRYSTALLINE FORMS THEREOF” (THRYV THERAPEUTICS INC, priority 2022, published 2025)

Assay: Water activity study (competition of forms, XRPD)
Type: physicochemical
Settings: room temperature
Method: Water activity study was performed using Compound 3 Form B (anhydrate) as the input material in EtOH/Water with different water content at RT. About 5 mg of Compound 3, Form B was used to prepare saturated solutions and the solutions were filtered by syringe at RT. 5 mg of Compound 3, Form D were added in the 1 mL of filtrate, and the suspension was slurried at RT for 3 and 7 days. The solids collected after filtration were analyzed by XRPD.
Protocol: excess amount of Compound 4 Form B was used to prepare saturated solutions. 6-8 mg each of Compound 4 Form B and Form D were added in the solutions. The suspension was slurried at room temperature for the corresponding times. Residual solids were collected by filtration with syringe filter, and characterized by XRPD.

With `Cc1n[nH]c2nc(-c3ccc(NS(=O)(=O)c4cc(F)ccc4F)c(F)c3)nc(NCCN(C)C)c12` [Compound 4 Form B] as the molecule, how does the “water activity (aw) at which the form is stable / the most stable form” value read?
Its value is no more than 0.08.
